From patent US7449545B2, “Antimicrobial bolisin peptides” (IPF Pharmaceuticals GmbH, priority 2001, dated 2008)
Read-outs that look alike come from different tables or passages of the source. Ends that are not written are not given here.

Experiments:
Type in all cases: cell-based
[1] = system: Enterococcus faecalis ATCC 51299 (vancomycin-resistant); conditions: ATCC 51299, 2 h
Description: (§1) The bolisin analogues of the present invention were examined for their suitability as antibiotic therapeutical agents by means of various biological tests. Thus, the chemically synthesized peptides were examined for their antimicrobial effectiveness against three Gram-positive and three Gram-negative bacterial strains as well as against a yeast.
(§2) The following microorganisms were used: • Gram-positive: Staphylococcus aureus ATCC 25923 • Enterococcus faecalis ATCC 51299 (vancomycin-resistant) • Streptococcus pneumoniae DSM 11865 (penicillin-resistant) • Gram-negative: Escherichia coli ATCC 25922 • Pseudomonas aeruginosa ATCC 9027 • Klebsiella pneumoniae ATCC 10031 • Yeast: Candida albicans ATCC 10231
(§3) The antibiotic activity of bolisin analogues was examined by determining the minimum inhibition concentration. […] This method allows to obtain a quantitative result about the antimicrobial potency of the peptides. These examinations were performed by analogy with the recommendations (M7-A3) edited by the NCCLS (National Committee for Clinical Laboratory Standards) by applying a dilution test in a liquid medium using chemically synthesized peptides (peptide sequences according to claims 1 to 3). Mueller Hinton Broth was used as the test medium according to the NCCLS recommendations unless indicated otherwise. […] The minimum inhibition concentrations are stated in [μg/ml].
(§4) A complete growth inhibition could not be achieved in this case. For determining the minimum inhibition concentration, the following microorganisms were used: • 1. Staphylococcus aureus ATCC 25923 • 2. Enterococcus faecalis ATCC 51299 (vancomycin-resistant) • 3. Streptococcus pneumoniae DSM 11865 (penicillin-resistant) • 4. Escherichia coli ATCC 25922 • 5. Pseudomonas aeruginosa ATCC 9027 • 6. Klebsiella pneumoniae ATCC 10031 • 7. Candida albicans ATCC 10231

[2] = system: Streptococcus pneumoniae DSM 11865 (penicillin-resistant); conditions: DSM 11865, 2 h
Description: as §1, §2, §3, §4

[3] = system: Klebsiella pneumoniae ATCC 10031; conditions: ATCC 10031, 2 h
Description: as §1, §2, §3, §4

[4] = system: Staphylococcus aureus ATCC 25923; conditions: ATCC 25923, 2 h
Description: as §1, §2, §3, §4

[5] = system: Escherichia coli ATCC 25922; conditions: ATCC 25922, 2 h
Description: as §1, §2, §3, §4

[6] = system: Pseudomonas aeruginosa ATCC 9027; conditions: complete growth inhibition not achieved
Description: as §1, §2
The antibiotic activity of bolisin analogues was examined by determining the minimum inhibition concentration. The minimum inhibition concentration of an analogue designates the lowest peptide concentration which is required to inhibit the growth of microorganisms completely after an incubation time of 18±2 h. This method allows to obtain a quantitative result about the antimicrobial potency of the peptides. These examinations were performed by analogy with the recommendations (M7-A3) edited by the NCCLS (National Committee for Clinical Laboratory Standards) by applying a dilution test in a liquid medium using chemically synthesized peptides (peptide sequences according to claims 1 to 3). Mueller Hinton Broth was used as the test medium according to the NCCLS recommendations unless indicated otherwise. […] The minimum inhibition concentrations are stated in [μg/ml].
as §4

[7] = system: Candida albicans ATCC 10231; conditions: ATCC 10231, 2 h
Description: as §1, §2, §3, §4

[8] = half-concentrated Mueller Hinton Broth

Substance	minimum inhibition concentration [1]	minimum inhibition concentration [2]	minimum inhibition concentration [3]	minimum inhibition concentration [4]	minimum inhibition concentration [5]	peptide concentration giving 75% inhibition of growth (value in parentheses) [6, 8]	minimum inhibition concentration [7]	peptide concentration giving 75% inhibition of growth (value in parentheses) ([6]; Mueller Hinton Broth)
YIRYKRRSADKRRKALK-OH [BOL-16, YIRYKRRSADKRRKALK]	>300 µg/mL	>300 µg/mL	150 µg/mL	100 µg/mL	75 µg/mL	(300) μg/ml	–	–
YIVYKIRWARKRRKALK-OH [BOL-50, YIVYKIRWARKRRKALK]	25 µg/mL	18.75 µg/mL	9.375 µg/mL	37.5 µg/mL	50 µg/mL	–	9.375 µg/mL	(6.25) μg/ml
YIVYKIRWAWKRSKAL [BOL-93, YIVYKIRWAWKRSKAL]	37.5 µg/mL	25 µg/mL	25 µg/mL	25 µg/mL	25 µg/mL	–	–	(37.5) μg/ml
YIVYKIRSAKKRWKALK-OH [BOL-57, YIVYKIRSAKKRWKALK]	>300 µg/mL	>300 µg/mL	300 µg/mL	>300 µg/mL	>300 µg/mL	–	300 µg/mL	(200) μg/ml
YIVYKRRSARKRSKALK-OH [BOL-11, YIVYKRRSARKRSKALK]	>300 µg/mL	>300 µg/mL	150 µg/mL	37.5 µg/mL	37.5 µg/mL	(150) μg/ml	–	–
YIVRKIRSAWKRWKALK-OH [BOL-79, YIVRKIRSAWKRWKALK]	>300 µg/mL	300 µg/mL	2.35 µg/mL	9.375 µg/mL	3.125 µg/mL	–	4.7 µg/mL	(4.7) μg/ml
YIRYKIRSARKRRKALK-OH [BOL-14, YIRYKIRSARKRRKALK]	>300 µg/mL	>300 µg/mL	75 µg/mL	50 µg/mL	37.5 µg/mL	(150) μg/ml	–	–
YIVWKIRSAWKRSKALK-OH [BOL-75, YIVWKIRSAWKRSKALK]	200 µg/mL	150 µg/mL	75 µg/mL	150 µg/mL	75 µg/mL	–	37.5 µg/mL	(37.5) μg/ml
YIVYKIRSAWKRSKALK-OH [BOL-29, YIVYKIRSAWKRSKALK]	75 µg/mL	150 µg/mL	50 µg/mL	9.375 µg/mL	9.375 µg/mL	(18.75) μg/ml	–	–
KLAKRRKWAWRIKYVIY [BOL-103, KLAKRRKWAWRIKYVIY]	37.5 µg/mL	37.5 µg/mL	18.75 µg/mL	18.75 µg/mL	18.75 µg/mL	–	–	(9.4) μg/ml
YIVYKRRSADKRRKALK-OH [BOL-12, YIVYKRRSADKRRKALK]	>300 µg/mL	>300 µg/mL	200 µg/mL	18.75 µg/mL	18.75 µg/mL	(300) μg/ml	–	–
YIVYKRRSARKRRKALK-OH [BOL-15, YIVYKRRSARKRRKALK]	>300 µg/mL	>300 µg/mL	75 µg/mL	18.75 µg/mL	18.75 µg/mL	(150) μg/ml	–	–
YIVYKIRSARKRRKALK-OH [BOL-13, YIVYKIRSARKRRKALK]	75 µg/mL	150 µg/mL	18.75 µg/mL	18.75 µg/mL	18.75 µg/mL	(9.375) μg/ml	–	–
YIVYKIRSADKRWKALK-OH [BOL-30, YIVYKIRSADKRWKALK]	>300 µg/mL	>300 µg/mL	300 µg/mL	100 µg/mL	150 µg/mL	(300) μg/ml	–	–
YIVYKIRFAFKRRKAL [BOL-92, YIVYKIRFAFKRRKAL]	18.75 µg/mL	25 µg/mL	12.5 µg/mL	18.75 µg/mL	18.75 µg/mL	–	–	(37.5) μg/ml
YIVYKIRWTWKRSKAL [BOL-97, YIVYKIRWTWKRSKAL]	18.75 µg/mL	18.75 µg/mL	18.75 µg/mL	12.5 µg/mL	18.75 µg/mL	–	–	(37.5) μg/ml
YIVYKIRSADKRRKALK-OH [BOL-7, YIVYKIRSADKRRKALK]	>300 µg/mL	>300 µg/mL	300 µg/mL	75 µg/mL	150 µg/mL	(75) μg/ml	–	–
YIVWKIRSADKRSKALK-OH [BOL-25, YIVWKIRSADKRSKALK]	>300 µg/mL	>300 µg/mL	200 µg/mL	150 µg/mL	150 µg/mL	(150) μg/ml	–	–
YIVYKIRWADKRSKALK-OH [BOL-27, YIVYKIRWADKRSKALK]	300 µg/mL	300 µg/mL	150 µg/mL	75 µg/mL	75 µg/mL	(150) μg/ml	–	–
YIVYKIRSARKRSKALK-OH [BOL-6, YIVYKIRSARKRSKALK]	200 µg/mL	150 µg/mL	37.5 µg/mL	37.5 µg/mL	37.5 µg/mL	(9.375) μg/ml	–	–
YIVYKIRSAPKRSKALK-OH [BOL-21, YIVYKIRSAPKRSKALK]	>300 µg/mL	>300 µg/mL	200 µg/mL	75 µg/mL	150 µg/mL	(150) μg/ml	–	–
YIVYKIRFAFKRSKAL [BOL-91, YIVYKIRFAFKRSKAL]	37.5 µg/mL	37.5 µg/mL	18.75 µg/mL	25 µg/mL	25 µg/mL	–	–	(150) μg/ml
